Results taken from patent US12559506B2, “Indazole based compounds and associated methods of use” (Arvinas Operations, Inc., priority 2021, dated 2026).
Where two headings read alike, the source gives them in different places.

Target: T1, LRRK2 (endogenous, HiBit tagged) (Homo sapiens, UniProt Q5S007)
T1 construct: endogenous in cells; host or cells: HEK293 cells with HiBit knock-in at the endogenous LRRK2 locus, stably expressing firefly luciferase
Test: Endogenous LRRK2 degradation assay, endogenous gene C-terminally HiBit-tagged in HEK293 cells (Nano-Glo Dual Luciferase)
Type: cell-based
How it was run: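 LRRK2-HiBit quantified via Nano-Glo Dual Luciferase in HEK293 knock-in cells co-expressing firefly luciferase, after 24 h exposure to compound (1 μM final top, 1:3, 11 points). Values normalised to DMSO median per plate and curve-fitted; Alamar Blue viability run alongside.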

[1] = endogenous HiBit-tagged LRRK2 in HEK293 cells, 24 hours treatment, read-out: **Endogenous WT Dmax (%)
[2] = endogenous HiBit-tagged LRRK2 in HEK293 cells, 24 hours treatment, read-out: *Endogenous WT DC50
[3] = endogenous HiBit-tagged LRRK2 in HEK293 cells, 24 hours treatment, read-out: Endogenous WT DC50
[4] = endogenous HiBit-tagged LRRK2 in HEK293 cells, 24 hours treatment, read-out: Endogenous WT Dmax
[5] = endogenous HiBit-tagged LRRK2, HEK293 cells, 24 hours, read-out: **Endogenous WT Dmax (%)
[6] = endogenous HiBit-tagged LRRK2, HEK293 cells, 24 hours, read-out: *Endogenous WT DC50

T1 sequence (Q5S007 whole entry): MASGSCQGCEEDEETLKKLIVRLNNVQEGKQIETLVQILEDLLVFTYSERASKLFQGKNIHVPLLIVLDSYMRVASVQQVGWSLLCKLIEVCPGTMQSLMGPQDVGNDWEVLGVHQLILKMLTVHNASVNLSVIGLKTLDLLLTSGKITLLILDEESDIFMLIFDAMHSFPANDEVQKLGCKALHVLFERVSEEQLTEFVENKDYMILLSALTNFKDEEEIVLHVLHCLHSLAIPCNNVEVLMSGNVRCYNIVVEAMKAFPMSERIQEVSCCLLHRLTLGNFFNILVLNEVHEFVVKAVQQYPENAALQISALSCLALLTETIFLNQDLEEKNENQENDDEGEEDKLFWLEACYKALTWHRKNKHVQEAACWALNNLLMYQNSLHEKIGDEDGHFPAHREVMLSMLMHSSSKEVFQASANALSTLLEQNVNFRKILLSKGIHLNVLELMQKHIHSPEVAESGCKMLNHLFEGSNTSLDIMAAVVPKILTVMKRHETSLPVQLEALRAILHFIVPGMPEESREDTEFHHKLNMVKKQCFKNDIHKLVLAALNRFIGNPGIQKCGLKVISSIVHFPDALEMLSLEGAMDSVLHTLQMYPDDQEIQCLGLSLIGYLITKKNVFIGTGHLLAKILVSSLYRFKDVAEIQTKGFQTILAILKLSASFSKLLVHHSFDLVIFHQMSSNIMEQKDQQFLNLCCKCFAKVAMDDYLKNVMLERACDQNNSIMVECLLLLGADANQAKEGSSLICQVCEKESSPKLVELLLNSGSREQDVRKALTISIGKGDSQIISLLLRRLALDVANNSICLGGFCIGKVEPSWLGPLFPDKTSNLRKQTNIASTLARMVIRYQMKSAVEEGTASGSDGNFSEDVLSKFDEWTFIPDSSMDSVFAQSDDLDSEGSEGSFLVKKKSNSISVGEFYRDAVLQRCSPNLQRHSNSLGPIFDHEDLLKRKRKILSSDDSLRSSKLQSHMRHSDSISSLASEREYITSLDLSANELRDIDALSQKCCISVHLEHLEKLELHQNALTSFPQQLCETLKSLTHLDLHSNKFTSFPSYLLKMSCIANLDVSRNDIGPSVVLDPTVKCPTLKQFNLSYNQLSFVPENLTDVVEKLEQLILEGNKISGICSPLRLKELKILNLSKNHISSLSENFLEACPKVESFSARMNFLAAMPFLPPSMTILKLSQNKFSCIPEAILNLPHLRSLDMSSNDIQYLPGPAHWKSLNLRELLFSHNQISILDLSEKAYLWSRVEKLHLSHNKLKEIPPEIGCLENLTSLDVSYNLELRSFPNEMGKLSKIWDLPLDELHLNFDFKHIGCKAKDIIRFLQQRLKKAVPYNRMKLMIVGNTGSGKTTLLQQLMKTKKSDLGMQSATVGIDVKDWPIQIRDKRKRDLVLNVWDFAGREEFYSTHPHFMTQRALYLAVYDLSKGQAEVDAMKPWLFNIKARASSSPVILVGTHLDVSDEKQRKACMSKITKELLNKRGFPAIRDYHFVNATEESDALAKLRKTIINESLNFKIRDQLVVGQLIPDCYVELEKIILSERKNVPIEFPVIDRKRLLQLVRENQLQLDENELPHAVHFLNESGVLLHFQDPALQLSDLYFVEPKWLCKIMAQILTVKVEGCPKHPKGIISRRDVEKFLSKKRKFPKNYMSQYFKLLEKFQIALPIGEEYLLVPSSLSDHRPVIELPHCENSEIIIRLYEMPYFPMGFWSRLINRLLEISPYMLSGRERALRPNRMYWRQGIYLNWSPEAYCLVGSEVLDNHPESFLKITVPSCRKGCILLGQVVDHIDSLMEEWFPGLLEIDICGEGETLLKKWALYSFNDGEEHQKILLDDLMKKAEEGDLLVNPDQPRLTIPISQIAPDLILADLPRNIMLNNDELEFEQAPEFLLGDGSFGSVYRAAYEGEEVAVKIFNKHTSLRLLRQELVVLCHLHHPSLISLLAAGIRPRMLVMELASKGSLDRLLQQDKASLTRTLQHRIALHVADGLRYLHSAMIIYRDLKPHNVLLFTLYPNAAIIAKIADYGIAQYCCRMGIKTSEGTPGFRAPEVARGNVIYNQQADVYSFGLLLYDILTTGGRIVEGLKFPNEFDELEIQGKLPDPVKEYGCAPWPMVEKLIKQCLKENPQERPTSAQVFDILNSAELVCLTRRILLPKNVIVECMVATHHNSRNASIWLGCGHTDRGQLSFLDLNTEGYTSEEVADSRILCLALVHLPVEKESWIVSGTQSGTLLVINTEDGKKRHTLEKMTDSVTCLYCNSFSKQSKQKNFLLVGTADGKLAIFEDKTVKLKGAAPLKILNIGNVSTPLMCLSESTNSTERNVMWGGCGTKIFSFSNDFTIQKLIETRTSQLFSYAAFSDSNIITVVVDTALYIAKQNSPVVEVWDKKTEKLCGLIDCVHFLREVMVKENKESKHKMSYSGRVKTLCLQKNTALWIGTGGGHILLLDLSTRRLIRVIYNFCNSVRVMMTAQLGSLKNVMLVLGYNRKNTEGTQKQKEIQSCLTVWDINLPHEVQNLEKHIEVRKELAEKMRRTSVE

CC1(Oc2ccc3[nH]nc(-c4cc(N5CCN(C[C@H]6CC[C@H](OC7CCN(c8c(F)cc9c(c8F)CN(C8CCC(=O)NC8=O)C9=O)CC7)CC6)CC5)ncn4)c3c2)CC1 (stereo partly shown) [Compound 286, 3-[4,6-difluoro-1-oxo-5-(4-{[(1r,4r)-4-[(4-{6-[5-(1-methylcyclopropoxy)-1H-indazol-3-yl]pyrimidin-4-yl}piperazin-1-yl)methyl]cyclohexyl]oxy}piperidin-1-yl)-2,3-dihydro-1H-isoindol-2-yl]piperidine-2,6-dione]
Dmax [1]: ≥ 70% | DC50 [2]: 10 to 50 nM

Cc1cc(-c2n[nH]c3ccc(OC4(C)CC4)nc23)cc(N2CCC(O[C@H]3CC[C@H](CN4CCN(c5ccc6c(c5F)CN(C5CCC(=O)NC5=O)C6=O)CC4)CC3)CC2)n1 (stereo partly shown) [Compound 371, 3-[4-fluoro-1-oxo-5-(4-{[(1r,4r)-4-[(1-{6-methyl-4-[5-(1-methylcyclopropoxy)-1H-pyrazolo[4,3-b]pyridin-3-yl]pyridin-2-yl}piperidin-4-yl)oxy]cyclohexyl]methyl}piperazin-1-yl)-2,3-dihydro-1H-isoindol-2-yl]piperidine-2,6-dione]
DC50 [3]: < 10 nM | Dmax [4]: 50 to 70%

C[C@H]1CN(c2cc(-c3[nH]nc4cc(F)c(OC5(C)CC5)cc34)ncn2)CCN1CC1(F)CCN(CC2CCN(c3cc4c(cc3F)C(=O)N(C3CCC(=O)NC3=O)C4)CC2)CC1 (stereo partly drawn) [Compound 197, 3-(6-fluoro-5-{4-[(4-fluoro-4-{[(2S)-4-{6-[6-fluoro-5-(1-methylcyclopropoxy)-2H-indazol-3-yl]pyrimidin-4-yl}-2-methylpiperazin-1-yl]methyl}piperidin-1-yl)methyl]piperidin-1-yl}-1-oxo-2,3-dihydro-1H-isoindol-2-yl)piperidine-2,6-dione]
Dmax [5]: ≥ 70% | DC50 [6]: < 10 nM

CC1(Oc2ccc3n[nH]c(-c4cc(N5CC6(CCN([C@H]7C[C@H](OC8CCN(c9ccc%10c(c9F)CN(C9CCC(=O)NC9=O)C%10=O)CC8)C7)CC6)C5)ncn4)c3c2)CC1 (stereo partly shown) [Compound 304, 3-(4-fluoro-1-oxo-5-{4-[(1r,3r)-3-(2-{6-[5-(1-methylcyclopropoxy)-2H-indazol-3-yl]pyrimidin-4-yl}-2,7-diazaspiro[3.5]nonan-7-yl)cyclobutoxy]piperidin-1-yl}-2,3-dihydro-1H-isoindol-2-yl)piperidine-2,6-dione]
Dmax [1]: 50 to 70% | DC50 [2]: < 10 nM

COc1c(N2CCC(CN3CCN(CC4CCN(c5cc(-c6n[nH]c7cnc(OC8(C)CC8)cc67)ncn5)CC4)[C@H](C)C3)CC2)ccc2c1CN(C1CCC(=O)NC1=O)C2=O (stereo partly drawn) [Compound 257, 3-[4-methoxy-5-(4-{[(3R)-3-methyl-4-[(1-{6-[5-(1-methylcyclopropoxy)-1H-pyrazolo[3,4-c]pyridin-3-yl]pyrimidin-4-yl}piperidin-4-yl)methyl]piperazin-1-yl]methyl}piperidin-1-yl)-1-oxo-2,3-dihydro-1H-isoindol-2-yl]piperidine-2,6-dione]
Dmax [1]: 50 to 70% | DC50 [2]: < 10 nM

CC1(Oc2ccc3[nH]nc(-c4ccnc(N5CCN(C[C@H]6CC[C@H](OC7CCN(c8ccc9c(c8F)CN(C8CCC(=O)NC8=O)C9=O)CC7)CC6)CC5)c4)c3c2)CC1 (stereo partly shown) [Compound 358, 3-[4-fluoro-1-oxo-5-(4-{[(1r,4r)-4-[(4-{4-[5-(1-methylcyclopropoxy)-1H-indazol-3-yl]pyridin-2-yl}piperazin-1-yl)methyl]cyclohexyl]oxy}piperidin-1-yl)-2,3-dihydro-1H-isoindol-2-yl]piperidine-2,6-dione]
DC50 [3]: < 10 nM | Dmax [4]: 50 to 70%

COc1c(N2CCC(CN3CCN(CC4CCN(c5cc(-c6n[nH]c7ccc(OC8(C)CC8)cc67)ncn5)CC4)CC3(C)C)CC2)ccc2c1CN(C1CCC(=O)NC1=O)C2=O (stereo not shown) [Compound 262, 3-{5-[4-({2,2-dimethyl-4-[(1-{6-[5-(1-methylcyclopropoxy)-1H-indazol-3-yl]pyrimidin-4-yl}piperidin-4-yl)methyl]piperazin-1-yl}methyl)piperidin-1-yl]-4-methoxy-1-oxo-2,3-dihydro-1H-isoindol-2-yl}piperidine-2,6-dione]
Dmax [1]: 50 to 70% | DC50 [2]: < 10 nM

CC1(Oc2ccc3n[nH]c(-c4cc(N5CCC(O[C@H]6C[C@H](N7CCC(c8ccc9c(c8F)CN(C8CCC(=O)NC8=O)C9=O)CC7)C6)CC5)ncn4)c3c2)CC1 (stereo partly shown) [Compound 290, 3-(4-fluoro-1-oxo-5-{1-[(1r,3r)-3-[(1-{6-[5-(1-methylcyclopropoxy)-2H-indazol-3-yl]pyrimidin-4-yl}piperidin-4-yl)oxy]cyclobutyl]piperidin-4-yl}-2,3-dihydro-1H-isoindol-2-yl)piperidine-2,6-dione]
Dmax [1]: ≥ 70% | DC50 [2]: < 10 nM

CC1(Oc2ccc3[nH]nc(-c4cc(N5CCN(C[C@@H]6CC[C@@H](CN7CCN(c8ccc9c(c8F)CN(C8CCC(=O)NC8=O)C9=O)CC7)OC6)CC5)ncn4)c3c2)CC1 (single isomer, unassigned) [Compound 305]
Dmax [1]: 50 to 70% | DC50 [2]: < 10 nM

CC1(Oc2ccc3[nH]nc(-c4cc(N5CCN(CC6(F)CCN(CC7CCN(c8cccc9c8CN(C8CCC(=O)NC8=O)C9=O)CC7)CC6)CC5)ncn4)c3c2)CC1 (stereo not shown) [Compound 179, 3-[4-[4-[[4-fluoro-4-[[4-[6-[5-(1-methylcyclopropoxy)-2H-indazol-3-yl]pyrimidin-4-yl]piperazin-1-yl]methyl]-1-piperidyl]methyl]-1-piperidyl]-1-oxo-isoindolin-2-yl]piperidine-2,6-dione]
Dmax [5]: 50 to 70% | DC50 [6]: < 10 nM

CC1(Oc2cc3c(-c4cc(N5CCC(O[C@H]6C[C@@H](OC7CCN(c8ccc9c(c8F)CN(C8CCC(=O)NC8=O)C9=O)CC7)C6)CC5)ncn4)n[nH]c3cn2)CC1 (stereo partly shown) [Compound 233, 3-(4-fluoro-1-oxo-5-{4-[(1s,3s)-3-[(1-{6-[5-(1-methylcyclopropoxy)-1H-pyrazolo[3,4-c]pyridin-3-yl]pyrimidin-4-yl}piperidin-4-yl)oxy]cyclobutoxy]piperidin-1-yl}-2,3-dihydro-1H-isoindol-2-yl)piperidine-2,6-dione]
DC50 [3]: < 10 nM | Dmax [4]: 50 to 70%

CC1(Oc2ccc3n[nH]c(-c4cc(N5CCC(CO[C@H]6CC[C@H](CN7CCN(c8ccc9c(c8)C(=O)N(C8CCC(=O)NC8=O)C9=O)CC7)CC6)CC5)ncn4)c3c2)CC1 (stereo partly shown) [Compound 60, 2-(2,6-dioxo-3-piperidyl)-5-[4-[[4-[[1-[6-[5-(1-methylcyclopropoxy)-2H-indazol-3-yl]pyrimidin-4-yl]-4-piperidyl]methoxy]cyclohexyl]methyl]piperazin-1-yl]isoindoline-1,3-dione]
Dmax (endogenous HiBit-tagged LRRK2 in HEK293 cells, 24 hours, read-out: **Endogenous WT Dmax (%)): ≥ 70% | DC50 (endogenous HiBit-tagged LRRK2 in HEK293 cells, 24 hours, read-out: *Endogenous WT DC50): < 10 nM

COc1c(N2CCC(CN3CCN(CC4CCN(c5cc(-c6n[nH]c7ccc(OC8(C)CC8)cc67)ncn5)CC4)CC3)CC2)ccc2c1CN(C1CCC(=O)NC1=O)C2=O (stereo not shown) [Compound 211, 3-[4-methoxy-5-[4-[[4-[[1-[6-[5-(1-methylcyclopropoxy)-1H-indazol-3-yl]pyrimidin-4-yl]-4-piperidyl]methyl]piperazin-1-yl]methyl]-1-piperidyl]-1-oxo-isoindolin-2-yl]piperidine-2,6-dione]
DC50 [3]: < 10 nM | Dmax [4]: ≥ 70%

CC1(Oc2ccc3[nH]nc(-c4ccnc(N5CCC(O[C@H]6CC[C@H](CN7CCN(c8ccc9c(c8F)CN(C8CCC(=O)NC8=O)C9=O)CC7)CC6)CC5)c4)c3n2)CC1 (stereo partly shown) [Compound 375, 3-(4-fluoro-5-(4-(((1r,4r)-4-((1-(4-(5-(1-methylcyclopropoxy)-1H-pyrazolo[4,3-b]pyridin-3-yl)pyridin-2-yl)piperidin-4-yl)oxy)cyclohexyl)methyl)piperazin-1-yl)-1-oxoisoindolin-2-yl)piperidine-2,6-dione]
DC50 [3]: < 10 nM | Dmax [4]: 50 to 70%

COc1c(N2CCC(O[C@H]3CC[C@H](CN4CCN(c5cc(-c6n[nH]c7cc(F)c(OC8(C)CC8)cc67)ncn5)CC4)CC3)CC2)ccc2c1CN(C1CCC(=O)NC1=O)C2=O (stereo partly shown) [Compound 280, 3-[4-methoxy-1-oxo-5-(4-{[(1r,4r)-4-[(4-{6-[6-fluoro-5-(1-methylcyclopropoxy)-1H-indazol-3-yl]pyrimidin-4-yl}piperazin-1-yl)methyl]cyclohexyl]oxy}piperidin-1-yl)-2,3-dihydro-1H-isoindol-2-yl]piperidine-2,6-dione]
Dmax [1]: 50 to 70% | DC50 [2]: < 10 nM

CC1(Oc2cc3c(-c4cc(N5CCC(CN6CCN(CC7CCN(c8ccc9c(c8F)CN(C8CCC(=O)NC8=O)C9=O)CC7)C(C)(C)C6)CC5)ncn4)n[nH]c3cc2F)CC1 (stereo not shown) [Compound 275, 3-{4-fluoro-5-[4-({4-[(1-{6-[6-fluoro-5-(1-methylcyclopropoxy)-1H-indazol-3-yl]pyrimidin-4-yl}piperidin-4-yl)methyl]-2,2-dimethylpiperazin-1-yl}methyl)piperidin-1-yl]-1-oxo-2,3-dihydro-1H-isoindol-2-yl}piperidine-2,6-dione]
Dmax [1]: 50 to 70% | DC50 [2]: < 10 nM

CC1(Oc2ccc3[nH]nc(-c4cc(N5CCN(C[C@H]6CC[C@H](CN7CCN(c8ccc9c(c8F)CN(C8CCC(=O)NC8=O)C9=O)CC7)CC6)CC5)ncn4)c3c2)CC1 (stereo partly shown) [Compound 202, 3-[4-fluoro-5-[[4-[[4-[4-[6-[5-(1-methylcyclopropoxy)-1H-indazol-3-yl]pyrimidin-4-yl]piperazin-1-yl]methyl]cyclohexyl]methyl]piperazin-1-yl]-1-oxo-isoindolin-2-yl]piperidine-2,6-dione]
Dmax [5]: ≥ 70% | DC50 [6]: < 10 nM
